These results are taken from publication PMC6264142, “Microwave Assisted Organic Synthesis (MAOS) of Small Molecules as Potential HIV-1 Integrase Inhibitors” (Molecules, 2011).

Data set [1] concerns the target T1, HIV-1 integrase (Human immunodeficiency virus type 1 group M subtype B, UniProt P04585).
T1 construct: To determine the susceptibility of the HIV-1 integrase enzyme towards different compounds
Kind of data set: Overall integrase assay (ELISA). In kind it is biochemical. The note with it: concentration required to inhibit the in vitro overall integrase activity by 50%; read-out: IN enzymatic activity (IC50) Overall. From the text:
(§1) Overall integrase assay using an enzyme-linked immunosorbent assay (ELISA): To determine the susceptibility of the HIV-1 integrase enzyme towards different compounds we used enzyme-linked immunosorbent assays. These assays use an oligonucleotide substrate of which one oligonucleotide (5’-[…]-3’) is labeled with biotin at the 3’ end and the other oligonucleotide is labeled with digoxigenin at the 5’ end. For the overall integration assay the second 5’-digoxigenin labeled oligonucleotide is (5’-[…] […]-3’). For the Strand Transfer assay the second oligonucleotide lacks GT at the 3’ end. The integrase enzyme was diluted in 750 mM NaCl, 10 mM Tris pH 7.6, 10% glycerol, and 1 mM β-mercaptoethanol. To perform the reaction, diluted integrase (4 µL, corresponding to a concentration of 1.6 µM) and annealed oligonucleotides (4 µL, 7 nM) were added in a final reaction volume of 40 µL containing 10 mM MgCl2, 5 mM DTT, 20 mM HEPES pH 7.5, 5% PEG, and 15% DMSO. The reaction was carried out for 1 h at 37 °C. Reaction products were denatured with 30 mM NaOH and detected by an immunosorbent assay on avidin-coated plates.

Data set [2] has as its target T2, HIV-1 integrase (strand transfer step) (Human immunodeficiency virus type 1 group M subtype B, UniProt P04585).
T2 construct: To determine the susceptibility of the HIV-1 integrase enzyme towards different compounds
Kind of data set: Strand transfer assay (ELISA). The format is biochemical. The note with it: concentration required to inhibit the in vitro strand transfer step by 50%; read-out: IN enzymatic activity (IC50) ST.
Source text: as §1

Data set [3] relates to HIV(IIIB) strain in MT-4 cells. Kind of data set: MT-4/MTT assay, HIV-induced cytopathic effect. The format is cell-based, HIV-1. The note with it: for EC50: Human immunodeficiency virus 1, IIIB, MT4, 50% protection against CPE of HIV, read-out: EC50 against HIV-1 replication in cell cultures. The procedure:
In vitro anti-HIV and drug susceptibility assays: The inhibitory effect of antiviral drugs on the HIV-induced cytopathic effect (CPE) in human lymphocyte MT-4 cell culture was determined by the MT-4/MTT-assay. This assay is based on the reduction of the yellow 3-(4,5-dimethylthiazol-2-yl)-2,5-diphenyltetrazolium bromide (MTT) by mitochondrial dehydrogenase of metabolically active cells to a blue formazan derivative, which can be measured spectrophotometrically. The 50% cell culture infective dose (CCID50) of the HIV(IIIB) strain was determined by titration of the virus stock using MT-4 cells. For the drug-susceptibility assays, MT-4 cells were infected with 100–300 CCID50 of the virus stock in the presence of fivefold serial dilutions of the antiviral drugs. The concentration of the various compounds that achieved 50% protection against the CPE of the different HIV strains, which is defined as the EC50, was determined. In parallel, the 50% cytotoxic concentration (CC50) was determined.
On the technique in general: Formazan colour is commonly taken as a measure of viable cells.

Data set [4] concerns HIV-IN. Further details: method as in PMID 19385721, PMID 20112170. The note with it: HIV-IN inhibitor; cited from earlier work.

Molecules are shown by their SMILES.

By IC50 is commonly meant the concentration needed to halve the response being measured. Broadly, the melting point is the temperature of the solid-liquid transition. The molecule `COc1cccc2c1c(C(=O)C=C(O)C(=O)O)cn2Cc1cc(C)c(F)c(C)c1` [Compound 7i, 4-[1-(4-Fluoro-3,5-dimethylbenzyl)-4-methoxy-1H-indol-3-yl]-2-hydroxy-4-oxobut-2-enoic acid] showed a melting point of 153 to 155 °C. The IC50 in data set [1] came to 2.17 ± 1.65 µM. In addition, the IC50 in data set [2] turned out to be 5.24 ± 1.34 µM.

Broadly, the EC50 is the concentration giving half of the maximal effect. Molecule `COc1cccc2c1c(C(=O)C=C(O)C(=O)O)cn2Cc1cccc(C)c1C` [Compound 7d, 4-[1-(2,3-Dimethylbenzyl)-4-methoxy-1H-indol-3-yl]-2-hydroxy-4-oxobut-2-enoic acid] yielded a melting point of 160 to 162 °C. Moreover, the IC50 in data set [1] came out at 2.61 ± 1.17 µM. The IC50 in data set [2] came out at 6.79 ± 0.64 µM. The EC50 in data set [3] came to 1.74 µM.

Molecule `COc1cccc2c1c(C(=O)C=C(O)C(=O)O)cn2Cc1cccc(C)c1` [Compound 7b, 4-[1-(3-Methylbenzyl)-4-methoxy-1H-indol-3-yl]-2-hydroxy-4-oxobut-2-enoic acid] came in with a melting point of 150 to 152 °C. In addition, the IC50 in data set [1] came to 0.42 ± 0.29 µM. In addition, in data set [2], the IC50 was 1.36 ± 0.64 µM. Moreover, in data set [3], the EC50 was 2.14 µM.

`COc1cccc2c1c(C(=O)C=C(O)C(=O)O)cn2Cc1ccc(C)cc1` [Compound 7c, 4-[1-(4-Methylbenzyl)-4-methoxy-1H-indol-3-yl]-2-hydroxy-4-oxobut-2-enoic acid] displayed a melting point of 141 to 143 °C. Besides, the half-inhibitory concentration (IC50) in data set [1] was 5.76 ± 1.82 µM. Also, the IC50 in data set [2] worked out at 8.84 ± 5.6 µM.

Turning to `COc1cccc2c1c(C(=O)/C=C(\O)C(=O)O)cn2Cc1ccc(F)cc1` [CHI-1043, reference compound], the IC50 is 0.08 ± 0.003 µM in data set [1] and 0.14 ± 0.11 µM in data set [2].

Consider `Cc1nnc(C(=O)NC(C)(C)c2nc(C(=O)NCc3ccc(F)cc3)c(O)c(=O)n2C)o1` [raltegravir], for which the IC50 in data set [4] is 0.0068 µM.

With `COc1cccc2c1c(C(=O)C=C(O)C(=O)O)cn2Cc1ccccc1C` [Compound 7a, 4-[1-(2-Methylbenzyl)-4-methoxy-1H-indol-3-yl]-2-hydroxy-4-oxobut-2-enoic acid], the melting point fell in the range of 164 to 166 °C. Also, the concentration for half-maximal inhibition (IC50) in data set [1] came out at 1.74 ± 1.32 µM. Also, the IC50 in data set [2] was 1.07 ± 0.76 µM. Also, in data set [3], the EC50 turned out to be 1.74 µM. In addition, the “selectivity index (SI)” value in data set [3] (ratio of EC50 and CC50 values) is on record as 43.

`COc1cccc2c1c(C(=O)C=C(O)C(=O)O)cn2Cc1cc(C)ccc1C` [Compound 7f, 4-[1-(2,5-Dimethylbenzyl)-4-methoxy-1H-indol-3-yl]-2-hydroxy-4-oxobut-2-enoic acid] gave a melting point of 163 to 165 °C. Moreover, in data set [1], the half-maximal inhibitory concentration (IC50) stood at 3.83 ± 2.21 µM. Further, the concentration for half-maximal inhibition (IC50) in data set [2] was 9.47 ± 1.06 µM.

`COc1cccc2c1c(C(=O)C=C(O)C(=O)O)cn2Cc1c(C)cccc1C` [Compound 7g, 4-[1-(2,6-Dimethylbenzyl)-4-methoxy-1H-indol-3-yl]-2-hydroxy-4-oxobut-2-enoic acid] gave a melting point of 173 to 175 °C. Besides, the concentration for half-maximal inhibition (IC50) in data set [1] worked out at 7.34 ± 1.32 µM. Further, in data set [2], the IC50 turned out to be 23.5 ± 17.8 µM.

`COc1cccc2c1c(C(=O)C=C(O)C(=O)O)cn2Cc1cc(C)cc(C)c1` [Compound 7h, 4-[1-(3,5-Dimethylbenzyl)-4-methoxy-1H-indol-3-yl]-2-hydroxy-4-oxobut-2-enoic acid] displayed a melting point of 120 to 122 °C. Besides, the IC50 in data set [1] was 7.69 ± 5.59 µM. In addition, in data set [2], the concentration for half-maximal inhibition (IC50) is 5.49 ± 2.67 µM.

The molecule `COc1cccc2c1c(C(=O)C=C(O)C(=O)O)cn2Cc1ccc(C)cc1C` [Compound 7e, 4-[1-(2,4-Dimethylbenzyl)-4-methoxy-1H-indol-3-yl]-2-hydroxy-4-oxobut-2-enoic acid] gave a melting point of 143 to 145 °C. The IC50 in data set [1] stood at 51.8 ± 33.8 µM. For the same molecule, in data set [2], the half-inhibitory concentration (IC50) came to 55.9 ± 43.8 µM.
